Source: paper PMC9186412, “Rational Framework for the Design of Trp- and Arg-Rich Peptide Antibiotics Against Multidrug-Resistant Bacteria” (Frontiers in Microbiology, 2022)
Values after ≈ are worked out from the molar mass of the structure shown. Like-named read-outs stand apart in the source and are kept apart here.

Legend:
S. aureus = assay: microbe, parasite or virus in culture; format: cell-based; settings: Staphylococcus aureus, 18 h, MHB2, 18 h, 37°C
Description: (§1) Bacterial clinical isolates, used for initial screening and in previous studies ([Deslouches et al., 2013]; [Lin et al., 2018]), were anonymously provided by the clinical microbiology laboratory of the University of Pittsburgh medical Center. The panel used for secondary screening was from [CDC (2013)] (Supplementary Table 3), with resistance profiles data. Bacteria are stored in lock-secured –80°C freezer and typically retrieved by obtaining single colonies on agar plates prior for subsequent liquid broth cultures. Suspensions of test bacteria were prepared from log phase of growth by diluting overnight cultures at 1:100 with fresh cation-adjusted MHB (MHB2, Millipore Sigma, United States) and incubating for additional 3–4 h. Bacteria were spun at 3,000 × g for 10 min and the pellet resuspended in test condition media (Millipore Sigma, United States) to determine bacterial turbidity using a Den-1B densitometer (Grant Instruments, United States) at 0.5 McFarland (unit of bacterial density) corresponding to […].
(§2) To examine antibacterial activity, we used minor modifications of a standard growth inhibition assay endorsed by the Clinical and Laboratory Standards Institute (CLSI), as previously described ([Deslouches et al., 2013]). Bacteria were incubated with each of the indicated peptides in MHB2. The bacterial cells were kept in an incubator for 18 h at 37°C, which is linked to a robotic system that feeds a plate reader every hour with one of 8 × 96-well plates. This set-up allows the collection of growth kinetic data at A 570 (absorbance at 570 nm) to examine growth inhibition in real time (BioTek Instruments, United States). […] The assays are typically repeated a second time. If the MIC is different, a third experimental trial is performed to confirm the MIC. To assess bactericidal properties of the peptide, the assay was modified by using 15% fetal bovine serum (FBS, for a more physiologically relevant test condition) mixed with 25% MHB2 and 60% PBS. Bacterial cells (colony forming unit/mL or CFU/mL) were enumerated after incubating treated bacteria for 3 h and plating serially diluted samples on broth agar medium at 37°C overnight. Minimum bactericidal concentration (MBC) was determined as the peptide concentration at which complete bacterial killing was observed. […] Data were analyzed using GraphPad Prism software.

E. Faecium = assay: microbe, parasite or virus in culture; format: cell-based, Enterococcus Facium; settings: Enterococcus faecium, 18 h, MHB2, 18 h, 37°C
Description: as §1, §2

CDC AR isolates [1] = test system: CDC AR isolates; set-up: key: S (green), susceptible; I (blue), intermediate; R (red), resistant; settings: data provided by the CDC, ref CDC, cited from earlier work
From the text: Supplement Table_3.XLSX, sheet "CDC AR isolates profiles" | column: G(-) strains

CDC AR isolates [2] = test system: CDC AR isolates; set-up: key: S (green), susceptible; I (blue), intermediate; R (red), resistant; settings: Staphylococcus aureus SA461, CDC AR isolate; data provided by the CDC; ref CDC; cited from earlier work

SMILES: Cc1nnc(SCC2=C(C(=O)O)N3C(=O)[C@@H](NC(=O)Cn4cnnn4)[C@H]3SC2)s1 [Cefazolin, reference compound]
- MIC (S. aureus; strain SA12212, UPMC): 16 µM (≈ 7.27 µg/mL)
- MIC (S. aureus; strain SA18710, UPMC): 16 µM (≈ 7.27 µg/mL)
- MIC (S. aureus; strain SA49775): 2 µM (≈ 0.909 µg/mL)
- MIC (S. aureus; strain SA-US300): 8 µM (≈ 3.64 µg/mL)
- MIC (E. Faecium; strain EF23614, UPMC): > 16 µM
- MIC (E. Faecium; strain EF24670, UPMC): > 16 µM
- MIC (E. Faecium; strain EF26215, UPMC): 4 µM (≈ 1.82 µg/mL)
- MIC (E. Faecium; strain EF26692, UPMC): 4 µM (≈ 1.82 µg/mL)
- Antibiotic susceptibility profile (CDC AR isolates [1]; Enterobacter cloacae E62, CDC AR isolate): R
- Antibiotic susceptibility profile (CDC AR isolates [1]; Enterobacter cloacae E544, CDC AR isolate): R
- Antibiotic susceptibility profile (CDC AR isolates [1]; Enterobacter cloacae E545, CDC AR isolate): R
- Antibiotic susceptibility profile (CDC AR isolates [1]; Enterobacter cloacae E546, CDC AR isolate): R
- Antibiotic susceptibility profile (CDC AR isolates [1]; Escherichia coli EC541, CDC AR isolate): R
- Antibiotic susceptibility profile (CDC AR isolates [1]; Escherichia coli EC543, CDC AR isolate): R
- Antibiotic susceptibility profile (CDC AR isolates [1]; Escherichia coli EC544, CDC AR isolate): R
- Antibiotic susceptibility profile (CDC AR isolates [1]; Escherichia coli EC549, CDC AR isolate): R
- Antibiotic susceptibility profile (CDC AR isolates [1]; Klebsiella pneumoniae KP542, CDC AR isolate): R
- Antibiotic susceptibility profile (CDC AR isolates [1]; Klebsiella pneumoniae KP548, CDC AR isolate): R
- Antibiotic susceptibility profile (CDC AR isolates [1]; Klebsiella pneumoniae KP550, CDC AR isolate): R
- Antibiotic susceptibility profile (CDC AR isolates [1]; Klebsiella pneumoniae KP552, CDC AR isolate): R

SMILES: Cc1onc(-c2ccccc2)c1C(=O)N[C@@H]1C(=O)N2[C@@H]1SC(C)(C)[C@@H]2C(=O)O [Oxacillin, reference compound]
- MIC (S. aureus; strain SA12212, UPMC): 8 µM (≈ 3.21 µg/mL)
- MIC (S. aureus; strain SA18710, UPMC): 4 µM (≈ 1.61 µg/mL)
- MIC (S. aureus; strain SA49775): 0.25 µM (≈ 0.1 µg/mL)
- MIC (S. aureus; strain SA-US300): 4 µM (≈ 1.61 µg/mL)
- MIC (E. Faecium; strain EF23614, UPMC): 0.25 µM (≈ 0.1 µg/mL)
- MIC (E. Faecium; strain EF24670, UPMC): > 16 µM
- MIC (E. Faecium; strain EF26215, UPMC): 2 µM (≈ 0.803 µg/mL)
- MIC (E. Faecium; strain EF26692, UPMC): 2 µM (≈ 0.803 µg/mL)
- Antibiotic susceptibility profile (CDC AR isolates [1]; Staphylococcus aureus SA462, CDC AR isolate): S
- Antibiotic susceptibility profile (CDC AR isolates [1]; Staphylococcus aureus SA463, CDC AR isolate): S
- Antibiotic susceptibility profile (CDC AR isolates [1]; Staphylococcus aureus SA561, CDC AR isolate): R
- Antibiotic susceptibility profile (CDC AR isolates [2]): S
